Test results published in patent publication US20250074891A1 (Anaxis Pharma Pty Ltd., priority 2021, published 2025).

Key:
Conditions in all cases: Table 35
[1] = target: RIP3 (Homo sapiens (Human), UniProt Q9Y572); experiment: KINOMEscan binding assay, RIP3
Description: (§1) Kinase assays. For most assays, kinase-tagged T7 phage strains were grown in parallel in 24-well blocks in an E. coli host derived from the BL21 strain. E. coli were grown to log-phase and infected with T7 phage from a frozen stock (multiplicity of infection=0.4) and incubated with shaking at 32° C. until lysis (90-150 minutes).
(§2) The Hill Slope was set to −1.

[2] = target: RIP1 (Homo sapiens (Human), UniProt Q13546); experiment: KINOMEscan binding assay, RIP1
[3] = target: MLKL (full length) (Homo sapiens (Human), UniProt Q8NB16); experiment: KINOMEscan binding assay, MLKL (full length)
Description: as §1, §2

Chain of RIP3 (Q9Y572 whole entry): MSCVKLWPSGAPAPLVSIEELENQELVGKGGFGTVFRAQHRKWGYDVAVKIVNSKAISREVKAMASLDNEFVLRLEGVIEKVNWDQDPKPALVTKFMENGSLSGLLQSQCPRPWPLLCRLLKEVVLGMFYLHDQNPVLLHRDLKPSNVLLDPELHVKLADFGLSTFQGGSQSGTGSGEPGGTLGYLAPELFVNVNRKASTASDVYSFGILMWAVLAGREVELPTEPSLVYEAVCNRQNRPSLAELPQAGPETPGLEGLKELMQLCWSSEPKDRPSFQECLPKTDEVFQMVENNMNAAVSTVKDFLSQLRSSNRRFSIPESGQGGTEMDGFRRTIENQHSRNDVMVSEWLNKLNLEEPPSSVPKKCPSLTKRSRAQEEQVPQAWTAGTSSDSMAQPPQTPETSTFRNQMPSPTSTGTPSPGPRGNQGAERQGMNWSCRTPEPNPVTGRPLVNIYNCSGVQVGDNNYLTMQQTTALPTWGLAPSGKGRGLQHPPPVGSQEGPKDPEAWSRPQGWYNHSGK
Chain of RIP1 (Q13546 whole entry): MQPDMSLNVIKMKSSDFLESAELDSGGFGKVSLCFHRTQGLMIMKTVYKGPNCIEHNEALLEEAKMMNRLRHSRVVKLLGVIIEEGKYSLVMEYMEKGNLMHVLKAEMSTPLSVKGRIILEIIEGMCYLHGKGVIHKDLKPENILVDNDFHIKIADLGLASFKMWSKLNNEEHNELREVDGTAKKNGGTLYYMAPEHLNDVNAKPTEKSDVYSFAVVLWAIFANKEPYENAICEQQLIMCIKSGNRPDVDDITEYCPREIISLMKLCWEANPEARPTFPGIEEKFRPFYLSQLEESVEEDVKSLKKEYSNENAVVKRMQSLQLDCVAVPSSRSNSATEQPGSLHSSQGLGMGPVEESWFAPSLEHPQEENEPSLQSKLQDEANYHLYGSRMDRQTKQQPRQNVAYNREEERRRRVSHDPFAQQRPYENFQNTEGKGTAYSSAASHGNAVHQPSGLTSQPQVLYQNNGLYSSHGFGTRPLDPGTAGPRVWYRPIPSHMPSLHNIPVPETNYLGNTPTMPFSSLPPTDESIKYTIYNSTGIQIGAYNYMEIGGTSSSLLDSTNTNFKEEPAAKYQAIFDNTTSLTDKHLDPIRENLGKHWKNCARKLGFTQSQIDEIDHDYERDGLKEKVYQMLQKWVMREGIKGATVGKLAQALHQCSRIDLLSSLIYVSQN
Chain of MLKL (full length) (Q8NB16 whole entry): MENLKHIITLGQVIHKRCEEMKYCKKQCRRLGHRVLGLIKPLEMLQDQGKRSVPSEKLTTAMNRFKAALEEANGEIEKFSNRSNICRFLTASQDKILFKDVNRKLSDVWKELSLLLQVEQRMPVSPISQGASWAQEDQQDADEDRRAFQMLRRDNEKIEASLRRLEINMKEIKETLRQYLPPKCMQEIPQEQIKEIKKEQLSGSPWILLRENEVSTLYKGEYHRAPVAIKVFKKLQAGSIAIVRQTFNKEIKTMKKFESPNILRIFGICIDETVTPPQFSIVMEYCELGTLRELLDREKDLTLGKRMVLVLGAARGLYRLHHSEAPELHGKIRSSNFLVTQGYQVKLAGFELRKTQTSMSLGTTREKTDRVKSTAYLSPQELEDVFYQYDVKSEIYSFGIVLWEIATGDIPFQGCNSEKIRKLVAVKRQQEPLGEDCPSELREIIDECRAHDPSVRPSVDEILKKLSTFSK

Row | SMILES | Kd [1] [µM] | Kd [2] [µM] | Kd [3] [µM]
1 | C[C@H](Oc1cc(-c2n[nH]c(Nc3cc(C4(C(F)(F)F)CC4)on3)c2C(N)=O)ccc1NS(=O)(=O)C(F)F)c1ccc(F)cc1 [Compound 289, (S)-3-(4-((difluoromethyl)sulfonamido)-3-(1-(4-fluorophenyl)ethoxy)phenyl)-5-((5-(1-(trifluoromethyl)cyclopropyl)isoxazol-3-yl)amino)-1H-pyrazole-4-carboxamide] | > 30 | > 30 | < 0.01
2 | Cc1cnc(Nc2[nH]nc(-c3ccc(NS(=O)(=O)C(F)F)c(OC4(c5ccc(F)cc5)CC4)c3)c2C(N)=O)cn1 [Compound 290, 3-(4-((difluoromethyl)sulfonamido)-3-(1-(4-fluorophenyl)cyclopropoxy)phenyl)-5-((5-methylpyrazin-2-yl)amino)-1H-pyrazole-4-carboxamide] | > 30 | > 30 | < 0.01
3 | C[C@H](Oc1cc(-c2n[nH]c(Nc3cc(C4(C)COC4)on3)c2C(N)=O)ccc1NS(=O)(=O)C(F)F)c1ccc(F)cc1 [Compound 292, (S)-3-(4-((difluoromethyl)sulfonamido)-3-(1-(4-fluorophenyl)ethoxy)phenyl)-5-((5-(3-methyloxetan-3-yl)isoxazol-3-yl)amino)-1H-pyrazole-4-carboxamide] | > 30 | > 30 | < 0.01
4 | COc1cc(Nc2[nH]nc(-c3ccc(NS(=O)(=O)C(F)F)c(O[C@@H](C)c4ccc(F)cc4)c3)c2C(N)=O)nn1C [Compound 294, (S)-3-(4-((difluoromethyl)sulfonamido)-3-(1-(4-fluorophenyl)ethoxy)phenyl)-5-((5-methoxy-1-methyl-1H-pyrazol-3-yl)amino)-1H-pyrazole-4-carboxamide] | > 30 | > 30 | < 0.01
5 | C[C@H](Oc1cc(-c2n[nH]c(Nc3cc(C(C)(C)C)no3)c2C(N)=O)ccc1NS(=O)(=O)C(F)F)c1ccc(F)cc1 [Compound 295, (S)-5-((3-(tert-butyl)isoxazol-5-yl)amino)-3-(4-((difluoromethyl)sulfonamido)-3-(1-(4-fluorophenyl)ethoxy)phenyl)-1H-pyrazole-4-carboxamide] | > 30 | > 30 | < 0.01
6 | C[C@H](Oc1cc(-c2n[nH]c(Nc3cnc(C4CCOCC4)cn3)c2C(N)=O)ccc1NS(=O)(=O)C(F)F)c1ccc(F)cc1 [Compound 296, (S)-3-(4-((difluoromethyl)sulfonamido)-3-(1-(4-fluorophenyl)ethoxy)phenyl)-5-((5-(tetrahydro-2H-pyran-4-yl)pyrazin-2-yl)amino)-1H-pyrazole-4-carboxamide] | > 30 | > 30 | < 0.01
7 | C[C@H](Oc1cc(-c2n[nH]c(Nc3cc(C(C)(C)F)on3)c2C(N)=O)ccc1NS(=O)(=O)C(F)F)c1ccc(F)cc1 [Compound 297, (S)-3-(4-((difluoromethyl)sulfonamido)-3-(1-(4-fluorophenyl)ethoxy)phenyl)-5-((5-(2-fluoropropan-2-yl)isoxazol-3-yl)amino)-1H-pyrazole-4-carboxamide] | > 30 | > 30 | < 0.01
8 | COC[C@@H](Oc1cc(-c2n[nH]c(Nc3cc(C)on3)c2C(N)=O)ccc1NS(=O)(=O)C(F)F)c1ccc(F)cc1 [Compound 300, (S)-3-(4-((difluoromethyl)sulfonamido)-3-(1-(4-fluorophenyl)-2-methoxyethoxy)phenyl)-5-((5-methylisoxazol-3-yl)amino)-1H-pyrazole-4-carboxamide] | > 30 | > 30 | < 0.01
9 | Cc1cc(Nc2[nH]nc(-c3ccc(NS(=O)(=O)C(F)F)c(O[C@@H](C)c4ccc(F)cc4)c3)c2C(N)=O)on1 [Compound 302, (S)-3-(4-((difluoromethyl)sulfonamido)-3-(1-(4-fluorophenyl)ethoxy)phenyl)-5-((3-methylisoxazol-5-yl)amino)-1H-pyrazole-4-carboxamide] | > 30 | > 30 | < 0.01
10 | C[C@H](Oc1cc(-c2n[nH]c(Nc3cc(C4CCOCC4)on3)c2C(N)=O)ccc1NS(=O)(=O)C(F)F)c1ccc(F)cc1 [Compound 303, (S)-3-(4-((difluoromethyl)sulfonamido)-3-(1-(4-fluorophenyl)ethoxy)phenyl)-5-((5-(tetrahydro-2H-pyran-4-yl)isoxazol-3-yl)amino)-1H-pyrazole-4-carboxamide] | > 30 | > 30 | < 0.01
11 | C[C@H](Oc1cc(-c2n[nH]c(Nc3cc(C4CCOC4)on3)c2C(N)=O)ccc1NS(=O)(=O)C(F)F)c1ccc(F)cc1 (stereo partly drawn) [Compound 305, 3-(4-((difluoromethyl)sulfonamido)-3-((S)-1-(4-fluorophenyl)ethoxy)phenyl)-5-((5-(tetrahydrofuran-3-yl)isoxazol-3-yl)amino)-1H-pyrazole-4-carboxamide] | > 30 | > 30 | < 0.01
12 | C[C@H](Oc1cc(-c2n[nH]c(Nc3cnn(C4CCOCC4)c3)c2C(N)=O)ccc1NS(=O)(=O)C(F)F)c1ccc(F)cc1 [Compound 306, (S)-3-(4-((difluoromethyl)sulfonamido)-3-(1-(4-fluorophenyl)ethoxy)phenyl)-5-((1-(tetrahydro-2H-pyran-4-yl)-1H-pyrazol-4-yl)amino)-1H-pyrazole-4-carboxamide] | > 30 | > 30 | < 0.01
13 | NC(=O)c1c(-c2ccc(NS(=O)(=O)C(F)F)c(OC3(c4ccc(F)cc4)CC3)c2)n[nH]c1Nc1cnccn1 [Compound 307, 3-(4-((difluoromethyl)sulfonamido)-3-(1-(4-fluorophenyl)cyclopropoxy)phenyl)-5-(pyrazin-2-ylamino)-1H-pyrazole-4-carboxamide] | > 30 | > 30 | < 0.01
14 | C[C@H](Oc1cc(-c2n[nH]c(Nc3cc4n(n3)CCOC4)c2C(N)=O)ccc1NS(=O)(=O)C(F)F)c1ccc(F)cc1 [Compound 308, (S)-3-(4-((difluoromethyl)sulfonamido)-3-(1-(4-fluorophenyl)ethoxy)phenyl)-5-((6,7-dihydro-4H-pyrazolo[5,1-c][1,4]oxazin-2-yl)amino)-1H-pyrazole-4-carboxamide] | > 30 | > 30 | < 0.01
15 | Cc1nccc(Nc2[nH]nc(-c3ccc(NS(=O)(=O)C(F)F)c(O[C@@H](C)c4ccc(F)cc4)c3)c2C(N)=O)n1 [Compound 309, (S)-3-(4-((difluoromethyl)sulfonamido)-3-(1-(4-fluorophenyl)ethoxy)phenyl)-5-((2-methylpyrimidin-4-yl)amino)-1H-pyrazole-4-carboxamide] | > 30 | > 30 | < 0.01
16 | C[C@H](Oc1cc(-c2n[nH]c(Nc3cnc(C(C)(C)C)cn3)c2C(N)=O)ccc1NS(=O)(=O)C(F)F)c1ccc(F)cc1 [Compound 312, (S)-5-((5-(tert-butyl)pyrazin-2-yl)amino)-3-(4-((difluoromethyl)sulfonamido)-3-(1-(4-fluorophenyl)ethoxy)phenyl)-1H-pyrazole-4-carboxamide] | > 30 | > 30 | < 0.01
17 | NC(=O)c1c(-c2ccc(NS(=O)(=O)C(F)F)c(OCc3ncco3)c2)n[nH]c1Nc1cnccn1 [Compound 313, 3-(4-((difluoromethyl)sulfonamido)-3-(oxazol-2-ylmethoxy)phenyl)-5-(pyrazin-2-ylamino)-1H-pyrazole-4-carboxamide] | > 30 | > 30 | < 0.01
18 | C[C@H](Oc1cc(-c2n[nH]c(Nc3cc(C(F)F)on3)c2C(N)=O)ccc1NS(=O)(=O)C(F)F)c1ccc(F)cc1 [Compound 314, (S)-5-((5-(difluoromethyl)isoxazol-3-yl)amino)-3-(4-((difluoromethyl)sulfonamido)-3-(1-(4-fluorophenyl)ethoxy)phenyl)-1H-pyrazole-4-carboxamide] | > 30 | > 30 | < 0.01
19 | CCS(=O)(=O)Nc1ccc(-c2n[nH]c(Nc3ccc(C(=O)O)cn3)c2C(N)=O)cc1O[C@@H](C)c1ccc(F)cc1 [Compound 315, (S)-6-((4-carbamoyl-3-(4-(ethylsulfonamido)-3-(1-(4-fluorophenyl)ethoxy)phenyl)-1H-pyrazol-5-yl)amino)nicotinic acid] | > 30 | > 30 | < 0.01
20 | C[C@H](Oc1cc(-c2n[nH]c(Nc3cnc(C4CC4)cn3)c2C(N)=O)ccc1NS(=O)(=O)C(F)F)c1ccc(F)cc1 [Compound 316, (S)-5-((5-cyclopropylpyrazin-2-yl)amino)-3-(4-((difluoromethyl)sulfonamido)-3-(1-(4-fluorophenyl)ethoxy)phenyl)-1H-pyrazole-4-carboxamide] | > 30 | > 30 | < 0.01
21 | CCS(=O)(=O)Nc1ccc(-c2n[nH]c(Nc3cc(C)on3)c2C(N)=O)cc1O[C@@H](C)c1ccc(F)cc1 [Compound 317, (S)-3-(4-(ethylsulfonamido)-3-(1-(4-fluorophenyl)ethoxy)phenyl)-5-((5-methylisoxazol-3-yl)amino)-1H-pyrazole-4-carboxamide] | > 30 | > 30 | < 0.01
22 | C[C@H](Oc1cc(-c2n[nH]c(Nc3cc4n(n3)CCCN(C)C4)c2C(N)=O)ccc1NS(=O)(=O)C(F)F)c1ccc(F)cc1 [Compound 318, (S)-3-(4-((difluoromethyl)sulfonamido)-3-(1-(4-fluorophenyl)ethoxy)phenyl)-5-((5-methyl-5,6,7,8-tetrahydro-4H-pyrazolo[1,5-a][1,4]diazepin-2-yl)amino)-1H-pyrazole-4-carboxamide] | > 30 | > 30 | < 0.01
23 | COCC(Oc1cc(-c2n[nH]c(Nc3cnccn3)c2C(N)=O)ccc1NS(=O)(=O)C(F)F)c1ccc(F)cc1 (stereo not drawn) [Compound 319, 3-(4-((difluoromethyl)sulfonamido)-3-(1-(4-fluorophenyl)-2-methoxyethoxy)phenyl)-5-(pyrazin-2-ylamino)-1H-pyrazole-4-carboxamide] | > 30 | > 30 | < 0.01
